How the values were obtained:
[1] = biological target: T1, COX-2 (Homo sapiens, UniProt P35354); test: Human whole blood assay, COX-2 (LPS-induced PGE2 production); format: cell-based; parameters: endogenous in cells; host or cells: fresh heparinized human whole blood from volunteers, incubated with LPS; conditions: LPS-induced PGE2, 24 hours at 37° C., read-out: COX-2 (IC50 μM) HWB
T1 sequence (P35354 18-604): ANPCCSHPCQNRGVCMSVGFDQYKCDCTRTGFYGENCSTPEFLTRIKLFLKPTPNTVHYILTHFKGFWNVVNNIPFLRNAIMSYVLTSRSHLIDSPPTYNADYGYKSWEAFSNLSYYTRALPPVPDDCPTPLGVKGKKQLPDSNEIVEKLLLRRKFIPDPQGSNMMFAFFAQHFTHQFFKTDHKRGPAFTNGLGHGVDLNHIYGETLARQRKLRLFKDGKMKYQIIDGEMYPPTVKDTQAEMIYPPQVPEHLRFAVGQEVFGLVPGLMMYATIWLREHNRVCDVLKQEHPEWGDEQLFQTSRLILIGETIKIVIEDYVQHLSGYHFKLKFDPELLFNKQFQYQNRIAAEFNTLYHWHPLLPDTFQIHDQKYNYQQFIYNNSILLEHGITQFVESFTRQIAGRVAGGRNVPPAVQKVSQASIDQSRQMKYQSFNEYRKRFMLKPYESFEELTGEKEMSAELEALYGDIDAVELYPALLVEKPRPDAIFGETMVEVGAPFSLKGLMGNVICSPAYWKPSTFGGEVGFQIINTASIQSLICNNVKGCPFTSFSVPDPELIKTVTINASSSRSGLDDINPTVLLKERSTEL
Protocol: Human whole blood provides a protein and cell-rich milieu appropriate for the study of biochemical efficacy of anti-inflammatory compounds such as selective COX-2 inhibitors. […] This is consistent with the observation that COX-2 inhibitors have no effect on PGE2 production in normal blood. These inhibitors are active only after incubation of human whole blood with LPS, which induces COX-2. This assay can be used to evaluate the inhibitory effect of selective COX-2 inhibitors on PGE2 production. As well, platelets in whole blood contain a large amount of the COX-1 enzyme. Immediately following blood clotting, platelets are activated through a thrombin-mediated mechanism. This reaction results in the production of thromboxane B2 (TxB2) via activation of COX-1. Thus, the effect of test compounds on TxB2 levels following blood clotting can be examined and used as an index for COX-1 activity. Therefore, the degree of selectivity by the test compound can be determined by measuring the levels of PGE2 after LPS induction (COX-2) and TxB2 following blood clotting (COX-1) in the same assay.
A. COX-2 (LPS-induced PGE2 production)
Fresh blood is collected in heparinized tubes by venipuncture from both male and female volunteers. The subjects have no apparent inflammatory conditions and have not taken any NSAIDs for at least 7 days prior to blood collection. Plasma is immediately obtained from a 2 mL blood aliquot to use as blank (basal levels of PGE2). The remaining blood is incubated with LPS (100 μg/ml final concentration, Sigma Chem, #L-2630 from E. coli; diluted in 0.1% BSA (Phosphate buffered saline) for 5 minutes at room temperature. Five hundred μL aliquots of blood are incubated with either 2 μL of vehicle (DMSO) or 2 μL of a test compound at final concentrations varying from 10 nM to 30 μM for 24 hours at 37° C. At the end of the incubation, the blood is centrifuged at 12,000×g for 5 minutes to obtain plasma. A 100 μL aliquot of plasma is mixed with 400 μL of methanol for protein precipitation. The supernatant is obtained and is assayed for PGE2 using a radioimmunoassay kit (Amersham, RPA#530) after conversion of PGE2 to its methyl oximate derivative according to the manufacturer's procedure.

[2] = biological target: COX-1 (Homo sapiens, UniProt P23219); test: Assay of COX-1 activity from U937 cell microsomes; format: biochemical; parameters: endogenous in cells; host or cells: U937 cells, 100,000 x g microsomal pellet; conditions: PGE2, read-out: COX-1 (IC50 μM) U-937
Protocol: Assay of COX-1 Activity from U937 cell microsomes
U937 cells are pelleted by centrifugation at 500×g for 5 min and washed once with phosphate-buffered saline and repelleted. Cells are resuspended in homogenization buffer consisting of 0.1M Tris-HCl, pH 7.4, 10 mM EDTA, 2 μg/ml leupeptin, 2 μg/ml soybean trypsin inhibitor, 2 μg/ml aprotinin and 1 mM phenyl methyl sulfonyl fluoride. The cell suspension is sonicated 4 times for 10 sec and is centrifuged at 10,000×g for 10 min at 4° C. The supernatant is centrifuged at 100,000×g for 1 hr at 4° C. The 100,000×g microsomal pellet is resuspended in 0.1M Tris-HCl, pH 7.4, 10 mM EDTA to approximately 7 mg protein/ml and stored at −80° C.
Microsomal preparations are thawed immediately prior to use, subjected to a brief sonication, and then diluted to a protein concentration of 125 μg/ml in 0.1 M Tris-HCl buffer, pH 7.4 containing 10 mM EDTA, 0.5 mM phenol, 1 mM reduced glutathione and 1 μM hematin. Assays are performed in duplicate in a final volume of 250 μl. Initially, 5 μl of DMSO vehicle or drug in DMSO are added to 20 μl of 0.1M Tris-HCl buffer, pH 7.4 containing 10 mM EDTA in wells of a 96-deepwell polypropylene titre plate. 200 μl of the microsomal preparation are then added and pre-incubated for 15 min at room temperature before addition of 25 μl of […] arachidonic acid in 0.1M Tris-HCl and 10 mM EDTA, pH 7.4. Samples are incubated for 40 min at room temperature and the reaction is stopped by the addition of 25 μl of 1N HCl. Samples are neutralized with 25 μl of 1N NaOH prior to quantitation of PGE2 content by radioimmunoassay (Dupont-NEN or Amersham assay kits). Cyclooxygenase activity is defined as the difference between PGE2 levels in samples incubated in the presence of arachidonic acid and ethanol vehicle.
Compounds of the present invention are inhibitors of cyclooxygenase-2 and are thereby useful in the treatment of cyclooxygenase-2 mediated diseases as enumerated above. The activities of the compounds against cyclooxygenase may be seen in the representative results shown below. In the assay, inhibition is determined by measuring the amount of prostaglandin E2 (PGE2) synthesized in the presence of arachidonic acid, cyclooxygenase-1 or cyclooxygenase-2 and a putative inhibitor. The IC50 values represent the concentration of putative inhibitor required to return PGE2 synthesis to 50% of that obtained as compared to the uninhibited control.

Sequence of COX-1 (P23219 24-599): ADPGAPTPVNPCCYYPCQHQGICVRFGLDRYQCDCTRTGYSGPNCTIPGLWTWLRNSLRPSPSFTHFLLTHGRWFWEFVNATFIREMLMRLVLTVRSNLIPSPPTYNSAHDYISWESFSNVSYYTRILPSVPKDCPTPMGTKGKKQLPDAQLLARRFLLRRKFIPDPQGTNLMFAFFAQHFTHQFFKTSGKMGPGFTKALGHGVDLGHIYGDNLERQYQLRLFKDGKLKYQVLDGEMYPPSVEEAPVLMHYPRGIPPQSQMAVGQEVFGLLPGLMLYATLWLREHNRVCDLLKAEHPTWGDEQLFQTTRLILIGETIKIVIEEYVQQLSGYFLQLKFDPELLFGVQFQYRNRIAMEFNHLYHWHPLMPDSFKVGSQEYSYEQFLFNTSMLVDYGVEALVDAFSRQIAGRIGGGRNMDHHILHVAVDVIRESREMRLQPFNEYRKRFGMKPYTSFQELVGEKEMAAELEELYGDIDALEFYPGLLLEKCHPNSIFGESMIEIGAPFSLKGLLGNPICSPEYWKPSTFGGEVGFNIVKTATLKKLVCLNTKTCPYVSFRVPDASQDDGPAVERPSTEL

CS(=O)(=O)c1ccc(-c2cc(C(F)F)oc(=O)c2-c2ccccc2)cc1 [Example 5, 6-Difluoromethyl-4-(4-methylsulfonyl)phenyl-3-phenyl-pyran-2-one]
IC50 [1]: 1.8 µM
IC50 [2]: 0.3 to 1 µM

Cc1cc(-c2ccc(S(C)(=O)=O)cc2)c(-c2cccnc2)c(=O)o1 [Example 9]
IC50 [1]: 0.6 µM
IC50 [2]: 0.3 to 1 µM

CC(C)Sc1c(-c2ccc(S(C)(=O)=O)cc2)cc(C(F)(F)F)oc1=O [Example 12, 3-Isopropylthio-4-(4-(methylsulfonyl)phenyl)-6-trifluoromethyl-pyran-2-one]
IC50 [1]: 1 to 3 µM
IC50 [2]: >33 µM

Cc1cc(-c2ccc(S(C)(=O)=O)cc2)c(Oc2ccccc2)c(=O)o1 [Example 8, 6-Methyl-4-(4-(methylsulfonyl)phenyl)-3-phenoxy-pyran-2-one]
IC50 [1]: < 0.4 µM
IC50 [2]: 1 to 3 µM

Cc1cc(-c2ccc(S(C)(=O)=O)cc2)c(SC(C)C)c(=O)o1 [Example 10, 3-Isopropylthio-6-methyl-4-(4-(methylsulfonyl)phenyl)-pyran-2-one]
IC50 [1]: 1.3 µM
IC50 [2]: > 10 µM

CS(=O)(=O)c1ccc(-c2ccoc(=O)c2-c2ccccc2)cc1 [Example 1, 4-(4-Methylsulfonyl)phenyl-3-phenyl-pyran-2-one]
IC50 [1]: 2.6 µM
IC50 [2]: > 10 µM

Cc1cc(-c2ccc(S(C)(=O)=O)cc2)c(-c2ccc(F)cc2)c(=O)o1 [Example 2, 3-(4-Fluorophenyl)-6-methyl-4-(4-methylsulfonyl)phenyl-pyran-2-one]
IC50 [1]: < 0.4 µM
IC50 [2]: 0.3 to 1 µM

CS(=O)(=O)c1ccc(-c2cc(C(F)(F)F)oc(=O)c2Sc2ccccc2)cc1 [Example 11, 4-(4-(Methylsulfonyl)phenyl)-3-phenylthio-6-trifluoromethyl-pyran-2-one]
IC50 [1]: 0.3 to 1 µM
IC50 [2]: 14 µM

CS(=O)(=O)c1ccc(-c2cc(CF)oc(=O)c2-c2ccccc2)cc1 [Example 6, 6-Fluoromethyl-4-(4-methylsulfonyl)phenyl-3-phenyl-pyran-2-one]
IC50 [1]: 3.1 µM
IC50 [2]: ~1 µM

Cc1cc(-c2ccc(S(C)(=O)=O)cc2)c(CCC(C)(C)O)c(=O)o1 [Example 14, 3-(3-Hydroxy-3-methylbutyl)-6-methyl-4-(4-methylsulfonyl)phenyl-pyran-2-one]
IC50 [1]: 1.2 µM
IC50 [2]: > 10 µM

Cc1cc(-c2ccc(S(C)(=O)=O)cc2)c(Sc2ccccc2)c(=O)o1 [Example 7, 6-Methyl-4-(4-(methylsulfonyl)phenyl)-3-phenylthio-pyran-2-one]
IC50 [1]: 0.5 µM
IC50 [2]: 1 to 3 µM

Cc1cc(-c2ccc(S(C)(=O)=O)cc2)c(-c2ccccc2)c(=O)o1 [Example 4, 6-Methyl-4-(4-methylsulfonyl)phenyl-3-phenyl-pyran-2-one]
IC50 [1]: < 0.4 µM
IC50 [2]: 1 µM

Cc1cc(-c2ccc(S(C)(=O)=O)cc2)c(-c2cccc(F)c2)c(=O)o1 [Example 3, 3-(3-Fluorophenyl)-6-methyl-4-(4-methylsulfonyl)phenyl-pyran-2-one]
IC50 [1]: < 0.4 µM
IC50 [2]: 3 to 10 µM
